Data: patent US8377943B2, “2,4-diaminopyrimidine derivates as PTK2-inhibitors for the treatment of abnormal cell growth” (Boehringer Ingelheim International GmbH, priority 2008, dated 2013)

How the values were obtained:
PTK2 = molecular target: T1, PTK2 (Homo sapiens, UniProt Q05397); experiment: PTK2 Enzyme Test (DELFIA assay, poly-Glu-Tyr substrate); format: biochemical; settings: active PTK2 enzyme, 50 μM ATP in ATP Mix, 1 h pre-incubation
T1 construct: purchased Invitrogen PV3832
Method: This test uses active PTK2 enzyme (Invitrogen Code PV3832) and poly-Glu-Tyr (4:1, Sigma P-0275) as the kinase substrate. The kinase activity is detected by means of the phosphorylation of the substrate in a DELFIA™ assay. The phosphorylated substrate is detected with the Europium-labelled phosphotyrosine antibody PY20 (Perkin Elmer, No.: AD0038).
In order to determine concentration-activity curves with PTK2-inhibitors the compounds are serially diluted in 10% DMSO/H2O and 10 μL of each dilution are dispensed per well in a 96-well microtitre plate (clear U-shaped base plate, Greiner No. 650101) (the inhibitors are tested in duplicates) and mixed with 10 μL/well of PTK2 kinase (0.01 μg/well). PTK2 kinase is diluted accordingly beforehand with kinase dilution buffer (20 mM TRIS/HCl pH 7.5, 0.1 mM EDTA, 0.1 mM EGTA, 0.286 mM sodium orthovanadate, 10% glycerol with the addition of freshly prepared BSA (fraction V 1 mg/mL) and DTT (1 mM)). The test compound and the PTK2 kinase are pre-incubated for 1 h at RT and shaken at 500 rpm. Then 20 μL ATP Mix (30 mM TRIS/HCl pH 7.5, 0.02% Brij, 0.2 mM sodium orthovanadate, 10 mM magnesium acetate, 0.1 mM EGTA, 1× Phosphatase Inhibitor Cocktail 1 (Sigma, No.: P2850), 50 μM ATP (Sigma, No.: A3377; 15 mM stock solution)) are added. The reaction is started by the addition of 10 μL/well of poly (Glu,Tyr) substrate (25 μg/well poly (Glu,Tyr), 0.05 μg/well biotinylated poly (Glu,Tyr) dissolved in 250 mM TRIS/HCl pH 7.5, 9 mM DTT)—the final concentration of DMSO is 2%. After 1 h kinase reaction (the plates are shaken at 500 rpm), the reaction is stopped by the addition of 12 μL/well of 100 mM EDTA, pH 8. And shaken for a further 5 min at RT (500 U/min).
55 μL of the reaction mixture are transferred into a streptavidin plate (Strepta Well High Bind (transparent, 96-well) made by Roche, No.: 11989685001) and incubated for 1 h at RT (shaking at 500 rpm). Then the microtitre plate is washed three times with 200 μL/well D-PBS (Invitrogen, No.:14190). 100 μL of 1:2000 diluted DELFIA Eu-N1 Anti-Phosphotyrosine PY20 antibody (Perkin Elmer, No.: AD0038, 1:2000 diluted in DELFIA test buffer (Perkin Elmer, No.: 1244-111)) is then added and it is incubated for 1 h at RT (shaking at 500 rpm). Then the plate is washed three times with 200 μL/well DELFIA washing buffer (Perkin Elmer, No.: 1244-114), 200 μL/well strengthening solution (Perkin Elmer, No.: 1244-105) is added and the whole is incubated for 10 min at RT (shaking at 300 rpm).
The time-delayed europium fluorescence is then measured in a microtitre plate reader (Victor, Perkin Elmer). The positive control consists of wells that contain solvent (2% DMSO in test buffer) and display uninhibited kinase activity. Wells that contain test buffer instead of enzyme act as a control for the background kinase activity.
The IC50 values are determined from concentration-activity analyses by iterative calculation using a sigmoidal curve analysis algorithm (FIFTY, based on GraphPAD Prism Version 3.03) with a variable Hill coefficient.

[1] = molecular target: T2, PTK2-phosphorylation at tyrosine 397 (pY397) (Homo sapiens, UniProt Q05397); experiment: Phospho-PTK2 (pY397) Assay in PC-3 cells; format: cell-based; settings: PC-3 prostate carcinoma cells, 2 h incubation; read-out: PC3pPTK2 Y397 EC50
T2 construct: endogenous in cells; host or cells: PC-3 (ATCC CRL-1435)
Method: This cellular test is used to determine the influence of PTK2-inhibitors on the state of the PTK2-phosphorylation at tyrosine 397 (pY397).
PC-3 cells (prostate carcinoma, ATCC CRL-1435) are grown in cell culture flasks (175 cm^2) with F12 Kaighn's Medium (Gibco, No.: 21127) with the addition of 10% foetal calf serum (Invitrogen, No.: 16000-044). The cultures are incubated in the incubator at 37° C. and 5% CO2 and run twice a week.
For the test, 2×10^4 cells pro well/[…] are plated out in 96-well microtitre plates (Costar, No.: 3598) and incubated overnight in the incubator at 37° C. and 5% CO2. The test compounds (10 μL from serial dilution) are added the next day. The concentration of the test compounds usually covers a range of 50 μM and 0.8 nM. The test compounds (stock solution: 10 mM in 100% DMSO) are diluted in medium/medium 10% DMSO such that the final concentration is 1% DMSO. The cells are then incubated in the incubator at 37° C. and 5% CO2 for 2 h. Then the culture supernatant is removed and the cells are fixed with 150 μL 4% formaldehyde in D-PBS for 20 min at RT. The cell lawn is washed five times with 200 μL 0.1% Triton X-100 in D-PBS for 5 min in each case and then incubated for 90 min with blocking buffer (5% skimmed milk powder (Maresi Fixmilch) in TBST (25 mM Tris/HCl, pH 8.0, 150 mM NaCl, 0.05% Tween 20). The blocking buffer is replaced by 50 μL of the first antibody anti-phospho PTK2 [pY397] rabbit monoclonal (Invitrogen/Biosource, No.: 44-625G), which is diluted 1:200 in blocking buffer. For control purposes, alternatively a PTK2 [total] antibody (clone 4.47 mouse monoclonal, Upstate, No.: 05-537), diluted 1:400 in blocking buffer is used. This incubation is carried out at 4° C. overnight. Then the cell lawn is washed five times with 100 μL of 0.1% Tween in D-PBS for 5 min in each case and 50 μL/well of second antibody are added. In order to detect bound phospho-PTK2 [pY397] antibody a goat-anti-rabbit antibody is used which is coupled with horseradish peroxidase (Dako, No.: P0448; 1:500 dilution in blocking buffer). In order to detect bound PTK2 [total]-antibodies a rabbit-anti-mouse antibody is used, which is also coupled with horseradish peroxidase (Dako, No.: PO161; 1:1000 dilution in blocking buffer). This incubation is carried out for 1 h at RT with gentle shaking. The cell lawn is then again washed five times with 100 μL of 0.1% Tween in D-PBS for 5 min in each case. […] The EC50 values are determined from concentration-activity analyses by iterative calculation with the aid of a sigmoidal curve analysis algorithm (FIFTY, based on GraphPAD Prism Version 3.03) with a variable Hill coefficient.

T1 sequence (Q05397 whole entry): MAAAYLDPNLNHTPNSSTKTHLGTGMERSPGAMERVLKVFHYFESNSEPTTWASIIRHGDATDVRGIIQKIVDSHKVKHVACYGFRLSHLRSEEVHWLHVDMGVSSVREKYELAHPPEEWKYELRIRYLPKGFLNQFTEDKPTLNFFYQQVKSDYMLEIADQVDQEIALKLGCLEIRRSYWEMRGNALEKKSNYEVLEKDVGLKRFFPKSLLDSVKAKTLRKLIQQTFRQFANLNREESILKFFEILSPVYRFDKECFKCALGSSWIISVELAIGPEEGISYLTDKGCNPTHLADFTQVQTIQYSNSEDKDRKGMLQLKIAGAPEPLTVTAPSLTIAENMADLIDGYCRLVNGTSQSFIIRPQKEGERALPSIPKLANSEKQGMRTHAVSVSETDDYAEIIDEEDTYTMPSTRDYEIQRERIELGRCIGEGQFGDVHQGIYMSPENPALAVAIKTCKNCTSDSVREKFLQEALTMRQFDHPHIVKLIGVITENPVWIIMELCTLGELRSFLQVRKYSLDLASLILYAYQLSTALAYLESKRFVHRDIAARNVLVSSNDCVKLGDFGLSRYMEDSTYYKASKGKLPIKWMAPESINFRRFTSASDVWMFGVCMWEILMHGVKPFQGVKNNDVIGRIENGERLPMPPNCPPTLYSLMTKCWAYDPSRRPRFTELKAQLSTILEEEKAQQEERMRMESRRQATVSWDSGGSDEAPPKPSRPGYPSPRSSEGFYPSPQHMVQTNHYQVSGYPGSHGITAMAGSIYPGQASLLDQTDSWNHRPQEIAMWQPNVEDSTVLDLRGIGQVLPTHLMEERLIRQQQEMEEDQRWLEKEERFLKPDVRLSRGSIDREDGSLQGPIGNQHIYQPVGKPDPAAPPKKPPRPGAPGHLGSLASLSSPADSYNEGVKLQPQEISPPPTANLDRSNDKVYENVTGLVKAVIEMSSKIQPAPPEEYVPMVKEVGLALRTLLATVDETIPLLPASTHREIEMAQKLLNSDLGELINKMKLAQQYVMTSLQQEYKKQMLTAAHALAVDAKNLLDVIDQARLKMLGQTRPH
T2 sequence (Q05397 whole entry): as above

SMILES: COc1ccc(CNc2nc(Nc3cc(F)c(C(=O)N[C@@H]4CCN(C)C4)cc3OC)ncc2C(F)(F)F)c(N(C)S(C)(=O)=O)c1 [Example 41]
- IC50 (PTK2): 2 nM
- EC50 [1]: 0.39 nM

SMILES: COc1cc(C(=O)N[C@H]2CCN(C)C[C@H]2F)ccc1Nc1ncc(C(F)(F)F)c(NCc2ccc(C)cc2N(C)S(C)(=O)=O)n1 [Example 119]
- IC50 (PTK2): 3 nM
- EC50 [1]: 3 nM

SMILES: COC(=O)Nc1cc(OC)c(Nc2ncc(C(F)(F)F)c(NCc3ccc(F)cc3N(C)S(C)(=O)=O)n2)cc1C [Example 126]
- IC50 (PTK2): 6 nM
- EC50 [1]: 3 nM

SMILES: COc1cc(C(=O)NC2CCN(C3CC3)CC2)ccc1Nc1ncc(C(F)(F)F)c(NCc2ccc(C)cc2N(C)S(C)(=O)=O)n1 [Example 38]
- IC50 (PTK2): 4 nM
- EC50 [1]: 0.35 nM

SMILES: CCc1cc(C(=O)NC2CCN(C)CC2)ccc1Nc1ncc(C(F)(F)F)c(NCc2ccc(C)cc2N(C)S(C)(=O)=O)n1 [Example 50]
- IC50 (PTK2): 2 nM
- EC50 [1]: 0.52 nM

SMILES: COc1cc(C(=O)NC(C)(C)C)c(F)cc1Nc1ncc(C(F)(F)F)c(NCc2ccc(C)cc2N(C)S(C)(=O)=O)n1 [Example 113]
- IC50 (PTK2): 5 nM
- EC50 [1]: 3 nM

SMILES: COc1cc(C(=O)NC2CCC3C(CCN3C)C2)ccc1Nc1ncc(C(F)(F)F)c(NCc2ccc(C)cc2N(C)S(C)(=O)=O)n1 (stereo not drawn) [Example 26]
- IC50 (PTK2): 3 nM
- EC50 [1]: 0.25 nM

SMILES: COc1ccc(CNc2nc(Nc3cc(F)c(C(=O)NC4CCN(C)CC4)cc3OC)ncc2C(F)(F)F)c(N(C)S(C)(=O)=O)c1 [Example 40]
- IC50 (PTK2): 1 nM
- EC50 [1]: 0.37 nM

SMILES: COc1cc(N2CCN(C)CC2)ccc1Nc1ncc(C(F)(F)F)c(NCc2ccc(F)cc2N(C)S(C)(=O)=O)n1 [Example 99]
- IC50 (PTK2): 1 nM
- EC50 [1]: 2 nM

SMILES: COc1cc(N2CCN(C3COC3)CC2)ccc1Nc1ncc(C(F)(F)F)c(NCc2ccc(C)cc2N(C)S(C)(=O)=O)n1 [Example 32]
- IC50 (PTK2): 4 nM
- EC50 [1]: 0.3 nM

SMILES: COc1cc(C(=O)NC2CCN(C)CC2)c(C)cc1Nc1ncc(C(F)(F)F)c(NCc2ccc(C)cc2N(C)S(C)(=O)=O)n1 [Example 100]
- IC50 (PTK2): 1 nM
- EC50 [1]: 2 nM

SMILES: CCN1CCC[C@H]1CNC(=O)c1ccc(Nc2ncc(C(F)(F)F)c(NCc3ccc(C)cc3N(C)S(C)(=O)=O)n2)c(OC)c1 [Example 45]
- IC50 (PTK2): 3 nM
- EC50 [1]: 0.44 nM

SMILES: COc1cc(CNCCN(C)C)ccc1Nc1ncc(C(F)(F)F)c(NCc2ccc(C)cc2N(C)S(C)(=O)=O)n1 [Example 88]
- IC50 (PTK2): 4 nM
- EC50 [1]: 1 nM

SMILES: COc1cc(C(=O)NC2CCN3CCCC3C2)ccc1Nc1ncc(C(F)(F)F)c(NCc2ccc(C)cc2N(C)S(C)(=O)=O)n1 (stereo not drawn) [Example 49]
- IC50 (PTK2): 4 nM
- EC50 [1]: 0.51 nM

SMILES: COc1cc(CNC2CCCC2)ccc1Nc1ncc(C(F)(F)F)c(NCc2ccc(C)cc2N(C)S(C)(=O)=O)n1 [Example 63]
- IC50 (PTK2): 3 nM
- EC50 [1]: 0.63 nM

SMILES: CNC(=O)c1ccc(Nc2ncc(C(F)(F)F)c(NCc3ccc(OC)cc3N(C)S(C)(=O)=O)n2)c(OC)c1 [Example 81]
- IC50 (PTK2): 1 nM
- EC50 [1]: 1 nM

SMILES: COc1cc(CNC2CCN(C)CC2)ccc1Nc1ncc(C(F)(F)F)c(NCc2ccc(C)cc2N(C)S(C)(=O)=O)n1 [Example 59]
- IC50 (PTK2): 3 nM
- EC50 [1]: 0.59 nM

SMILES: COc1cc(C(=O)NC2CCC(N3CCN(CC4CC4)CC3)CC2)c(C)cc1Nc1ncc(C(F)(F)F)c(NCc2ccc(C)cc2N(C)S(C)(=O)=O)n1 (stereo not drawn) [Example 107]
- IC50 (PTK2): 4 nM
- EC50 [1]: 2 nM

SMILES: COc1cc(C(=O)NC2CCN(CC(F)F)CC2)ccc1Nc1ncc(C(F)(F)F)c(NCc2ccc(C)cc2N(C)S(C)(=O)=O)n1 [Example 18]
- IC50 (PTK2): 3 nM
- EC50 [1]: 0.2 nM

SMILES: COc1cc(NC(C)=O)c(C)cc1Nc1ncc(C(F)(F)F)c(NCc2ccc(C)cc2N(C)S(C)(=O)=O)n1 [Example 68]
- IC50 (PTK2): 2 nM
- EC50 [1]: 0.72 nM

SMILES: Cc1ccc(CNc2nc(Nc3ccc(C(=O)N[C@H]4CC[C@H](N5CCOCC5)CC4)cc3F)ncc2C(F)(F)F)c(N(C)S(C)(=O)=O)c1 [Example 92]
- IC50 (PTK2): 1 nM
- EC50 [1]: 2 nM

SMILES: COc1cc(C(=O)NC2CCN(C3COC3)CC2)c(F)cc1Nc1ncc(C(F)(F)F)c(NCc2ccc(C)cc2N(C)S(C)(=O)=O)n1 [Example 93]
- IC50 (PTK2): 5 nM
- EC50 [1]: 2 nM

SMILES: COc1cc(C(=O)NCCN2CCCCC2)ccc1Nc1ncc(C(F)(F)F)c(NCc2ccc(C)cc2N(C)S(C)(=O)=O)n1 [Example 20]
- IC50 (PTK2): 2 nM
- EC50 [1]: 0.22 nM

SMILES: COc1cc(C(=O)NC2CCOCC2)ccc1Nc1ncc(C(F)(F)F)c(NCc2ccc(C)cc2N(C)S(C)(=O)=O)n1 [Example 60]
- IC50 (PTK2): 4 nM
- EC50 [1]: 0.6 nM

SMILES: COc1ccc(CNc2nc(Nc3ccc(NC(C)=O)c(C)c3)ncc2C(F)(F)F)c(N(C)S(C)(=O)=O)c1 [Example 118]
- IC50 (PTK2): 1 nM
- EC50 [1]: 3 nM

SMILES: COc1cc(C(=O)NC2CCN(C)CC2)c(F)cc1Nc1ncc(C(F)(F)F)c(NCc2ccc(Cl)cc2N(C)S(C)(=O)=O)n1 [Example 90]
- IC50 (PTK2): 1 nM
- EC50 [1]: 2 nM

SMILES: COc1cc(Nc2ncc(C(F)(F)F)c(NCc3ccc(C)cc3N(C)S(C)(=O)=O)n2)ccc1NC(C)=O [Example 103]
- IC50 (PTK2): 0.8 nM
- EC50 [1]: 2 nM

SMILES: COc1cc(C(=O)NC2CCC(N(C)C)CC2)ccc1Nc1ncc(C(F)(F)F)c(NCc2ccc(C)cc2N(C)S(C)(=O)=O)n1 (stereo not drawn) [Example 51]
- IC50 (PTK2): 1 nM
- EC50 [1]: 0.53 nM

SMILES: COc1cc(C(=O)N[C@@H]2CCN(C)C[C@@H]2F)c(F)cc1Nc1ncc(C(F)(F)F)c(NCc2ccc(C)cc2N(C)S(C)(=O)=O)n1 [Example 24]
- IC50 (PTK2): 3 nM
- EC50 [1]: 0.23 nM

SMILES: COc1cc(N2CCN(CC(=O)N(C)C)CC2)ccc1Nc1ncc(C(F)(F)F)c(NCc2ccc(F)cc2N(C)S(C)(=O)=O)n1 [Example 82]
- IC50 (PTK2): 2 nM
- EC50 [1]: 1 nM
